This note sets out measurements from US11891352B2, “Aminomethyl-functionalized denatonium derivatives, their preparation and use” (Julius-Maximilians-Universitaet Wuerzburg, priority 2018, dated 2024).

The nature of the data set: Stability of amino-functionalized denatonium derivatives (LC/MS measurements). The data set is classed as physicochemical. An excerpt:
The decomposition of the substance is illustrated as follows: […]

For `CC[N+](CC)(CC(=O)Nc1c(C)cccc1C)Cc1ccc(N)cc1` [derivative (1)], the stability result was “not stable”.
